Measured values taken from patent US5998654A, “Retinoic acid receptor antagonist compounds and methods” (Ligand Pharmaceuticals Incorporated, priority 1997, dated 1999).
pEC50, pIC50: −log10 of the molar value.

Experiments:
Assay type in all cases: cell-based
Design in all cases: expressed in transfected cells; host or cells: CV-1 cells (African green monkey kidney)
RARβ [1] = molecular target: T1, RARβ (Homo sapiens, UniProt P10826); assay: co-transfection assay, antagonist activity on RARβ; settings: CV-1 cells, in presence of known RAR agonist TTNPB; for pIC50: read-out: IC50 antagonist potency, RARβ
T1 sequence (P10826 1-448 isoform P10826-2): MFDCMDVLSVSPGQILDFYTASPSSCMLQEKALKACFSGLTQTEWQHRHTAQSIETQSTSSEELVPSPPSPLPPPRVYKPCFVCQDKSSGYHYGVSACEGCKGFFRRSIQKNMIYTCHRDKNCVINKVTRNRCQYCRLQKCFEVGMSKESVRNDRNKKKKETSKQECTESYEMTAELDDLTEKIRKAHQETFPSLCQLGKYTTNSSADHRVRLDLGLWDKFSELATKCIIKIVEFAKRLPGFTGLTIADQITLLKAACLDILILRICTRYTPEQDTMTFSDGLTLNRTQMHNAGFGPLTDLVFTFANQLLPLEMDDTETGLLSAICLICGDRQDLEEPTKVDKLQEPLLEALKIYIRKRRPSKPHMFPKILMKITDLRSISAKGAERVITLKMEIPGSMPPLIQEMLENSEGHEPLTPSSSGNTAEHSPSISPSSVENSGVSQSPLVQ
Excerpt: (§1) This assay is described in further detail in U.S. Pat. Nos. 4,981,784 and 5,071,773, the disclosures of which are incorporated herein by reference.
(§2) In the co-transfection assay, a cloned cDNA for an IR (e.g., human RARα:, RARβ, RXRγ) under the control of a constitutive promoter (e.g., the SV 40 promoter) is introduced by transfection (a procedure to induce cells to take up foreign genes) into a background cell substantially devoid of endogenous IRs. This introduced gene directs the recipient cells to make the IR protein of interest. A second gene is also introduced (co-transfected) into the same cells in conjunction with the IR gene. This second gene, comprising the cDNA for a reporter protein, such as firefly luciferase (LUC), is controlled by an appropriate hormone responsive promoter containing a hormone response element (HRE). This reporter plasmid functions as a reporter for the transcription-modulating activity of the target IR. Thus, the reporter acts as a surrogate for the products (mRNA then protein) normally expressed by a gene under control of the target receptor and its native hormone.
(§3) The co-transfection assay can detect small molecule agonists or antagonists of target IRs. Exposing the transfected cells to an agonist ligand compound increases reporter activity in the transfected cells. This activity can be conveniently measured, e.g., by increasing luciferase production, which reflects compound-dependent, IR-mediated increases in reporter transcription. To detect antagonists, the co-transfection assay is carried out in the presence of a constant concentration of an agonist to the target IR (e.g., all-trans retinoic acid for RARα) known to induce a defined reporter signal. Increasing concentrations of a suspected antagonist will decrease the reporter signal (e.g., luciferase production). The co-transfection assay is therefore useful to detect both agonists and antagonists of specific IRs. Furthermore, it determines not only whether a compound interacts with a particular IR, but whether this interaction mimics (agonizes) or blocks (antagonizes) the effects of the native regulatory molecules on target gene expression, as well as the specificity and strength of this interaction.
CV-1 cells (African green monkey kidney fibroblasts) were cultured in the presence of Dulbecco's Modified Eagle Medium (DMEM) supplemented with 10% charcoal resin-stripped fetal bovine serum then transferred to 96-well microtiter plates one day prior to transfection.
To determine RAR and/or RXR agonist activity of the compounds of the present invention, the CV-1 cells were transiently transfected by calcium phosphate coprecipitation according to the procedure of Berger et al., 41 J. Steroid Biochem. Mol. Biol., 733 (1992) with the following receptor expressing plasmids: pRShRARα: Giguere et al., 330 Nature, 624 (1987); pRShRARβ and pRShRARγ, Ishikawa et al., 4 Mol. Endocrin., 837 (1990); pRShRXRα, Mangelsdorf et al., 345 Nature, 224 (1990); and pRSmRXRβ and pRSmRXRγ, Mangelsdorf et al., 6 Genes & Devel., 329 (1992), the disclosures of which are herein incorporated by reference. Each of these receptor expressing plasmids was co-transfected at a concentration of 5 ng/well, along with a basal reporter plasmid at 100 ng/well, the internal control plasmid pRS-β-Gal at 50 ng/well and filler DNA, pGEM at 45 ng/well.
The basal reporter plasmid D-MTV-LUC (Hollenberg and Evans, 55 Cell, 899 (1988), the disclosure of which is herein incorporated by reference) containing two copies of the TRE-palindromic response element described in Umesono et al., 336 Nature, 262 (1988), the disclosure of which is herein incorporated by reference, was used in transfections for the RARs, and the reporter plasmid CRBPIIFKLUC, which contains an RXRE (retinoid X receptor response element, as described in Mangelsdorf et al., 66 Cell, 555 (1991), the disclosure of which is herein incorporated by reference), was used in transfections for the RXRs.

RARβ [2] = molecular target: T1, RARβ; assay: co-transfection assay, agonist activity on RARβ; settings: CV-1 cells; read-out: EC50 agonist potency, RARβ
Excerpt: as §1, §2, §3
(§4) CV-1 cells (African green monkey kidney fibroblasts) were cultured in the presence of Dulbecco's Modified Eagle Medium (DMEM) supplemented with 10% charcoal resin-stripped fetal bovine serum then transferred to 96-well microtiter plates one day prior to transfection. […]

RARγ = molecular target: T2, RARγ (Homo sapiens, UniProt P13631); assay: co-transfection assay, agonist activity on RARγ; settings: CV-1 cells; read-out: EC50 agonist potency, RARγ
T2 sequence (P13631 1-454): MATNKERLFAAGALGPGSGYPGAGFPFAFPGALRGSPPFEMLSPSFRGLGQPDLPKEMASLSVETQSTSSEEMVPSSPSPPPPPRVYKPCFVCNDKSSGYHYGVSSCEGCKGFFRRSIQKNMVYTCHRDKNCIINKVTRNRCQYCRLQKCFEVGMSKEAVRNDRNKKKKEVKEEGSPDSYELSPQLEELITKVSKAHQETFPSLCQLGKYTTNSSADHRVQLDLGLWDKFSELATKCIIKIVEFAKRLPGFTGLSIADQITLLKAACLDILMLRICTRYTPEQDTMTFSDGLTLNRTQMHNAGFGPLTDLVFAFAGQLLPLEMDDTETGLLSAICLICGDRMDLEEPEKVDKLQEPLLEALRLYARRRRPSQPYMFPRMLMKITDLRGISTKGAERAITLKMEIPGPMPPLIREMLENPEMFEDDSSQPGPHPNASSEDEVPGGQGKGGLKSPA
Excerpt: as §1, §2, §3, §4

SMILES	efficacy of antagonist, % of maximal inhibition, RARβ (in parentheses after IC50) (RARβ [1]) [%]	pIC50 (RARβ [1])	pEC50 (RARβ [2])	pEC50 (RARγ)
CCCCOc1c(C(C)(C)C)cc(/C(C)=C/C=C/C(C)=C/C(=O)O)cc1C(C)(C)C [Compound 7, 2E, 4E, 6E-[7-(3,5-Di-t-butyl-4-n-butoxyphenyl)-3-methyl]-octa-2,4,6-trienoic acid]	85	8.40	< 5.00	< 5.00
CCCCCOc1c(C(C)(C)C)cc(/C(C)=C/C=C/C(C)=C/C(=O)O)cc1C(C)(C)C [Compound 9, 2E, 4E, 6E-[7-(3,5-Di-t-butyl-4-n-pentoxyphenyl)-3-methyl]-octa-2,4,6-trienoic acid]	86	7.77	< 5.00	< 5.00
CCCOc1c(C(C)(C)C)cc(/C(C)=C/C=C/C(C)=C/C(=O)O)cc1C(C)(C)C [Compound 8, 2E, 4E, 6E-[7-(3,5-Di-t-butyl-4-n-propoxyphenyl)-3-methyl]-octa-2,4,6-trienoic acid]	85	9.00	< 5.00	< 5.00
C=C(c1ccccc1)c1cc(/C(C)=C/C=C/C(C)=C/C(=O)O)cc(C(C)(C)C)c1 [Compound 17, (2E,4E,6E)-7-[3-t-butyl-5-(1-phenyl-vinyl)-phenyl]-3-methyl-octa-2,4,6-trienoic acid]	90	8.30	< 5.00	< 5.00
